US9242944B2 (UNIVERSITY OF MARYLAND, BALTIMORE, priority 2013, dated 2016)

These compounds were tested against T1, c-Myc-Max heterodimers (Homo sapiens, UniProt P01106) (assay: Electrophoretic mobility shift assay (EMSA) of c-Myc-Max dimerization and DNA binding). Settings: Table 1; 100 μM compound; Myc-Max/DNA band intensity relative to control; read-out: Inhibition at 100 μM (%).
T1 construct: c-Myc bHLH-ZIP domain (residues 353-437); His6-TEV protease substrate tag; made in house; host or cells: bacteria (pET151 vector for Myc)
Method: The ability of a small-molecule to interfere with c-Myc-Max dimerization is conveniently assessed through the disruption of the c-Myc-Max/DNA ternary complex by an electrophoretic mobility shift assay (EMSA) using fluorescently-labelled DNA, and subsequently quantified by densitometry.(23) Accordingly, a 100-member library was screened for the ability to disrupt the c-Myc-Max dimer.
These were performed essentially as described previously (23). Briefly, Ni^+-agarose-purified His6-tagged c-Myc bHLH-ZIP domain (residues 353-437) was used for all binding assays as was the His6-tagged 151 residue isoform of Max, otherwise referred to as Max(S) (residues 2-151) (21). For each binding reaction, the proteins were allowed to heterodimerize at a concentration of 30 nM each in the presence of 20 nM of a 5′-HEX-tagged double-stranded 22-base pair oligonucleotide 5′-hexachlorofluoresceine-[…]-3′ (SEQ ID NO: 1) containing a consensus c-Myc binding site (CACGTG) and the indicated concentration of small molecule inhibitor. Control reactions contained the same oligonucleotide in the presence of 60 nM of the 160 residue isoform of Max referred to as Max(L) (21). All binding reactions were prepared in a buffer consisting of PBS (pH 7.3), 1 mmol/L EDTA, 0.1% NP40, 5% glycerol, 1 mmol/L DTT, and 0.4 mg/mL bovine serum albumin. Electrophoresis was performed on 8% polyacrylamide/bisacrylamide (80:1) gels in […] (23). Each reaction was run on at least three separate occasions.
EMSAs were performed essentially as described utilizing bacterially-expressed recombinant proteins purified nearly to homogeneity.(23) Experiments with Max homodimers used the His6-tagged 160 amino acid isoform of the protein, termed Max(L), which homodimerizes and binds DNA well. For studies with Myc-Max heterodimers, the His6-tagged 151 residue isoform of Max [Max(S)] was used, which binds DNA well as a heterodimer with Myc but poorly as a homodimer.(23) Recombinant Myc protein, expressed in the pET151 vector, consisted of the His6-TEV protease substrate-tagged 85 amino acid bHLH-ZIP domain. (23) Each protein was purified by Ni-agarose affinity chromatography as previously described. (23) The His6-TEV tag was removed from the Myc protein by TEV protease cleavage followed by re-purification using Ni-agarose affinity chromatography to remove the His6-TEV protease and the cleaved His6-TEV tag as previously described. Binding assays were performed with 30 nM of each protein and 30 nM of a 6-carboxy-2′,4,4′,5′,7,7′-hexachlorofluorescein (HEX)-tagged double-stranded oligonucleotide containing a consensus Myc binding site (IDT, Coralville, Iowa).(23)

T1 sequence (P01106 368-452, one chain of several): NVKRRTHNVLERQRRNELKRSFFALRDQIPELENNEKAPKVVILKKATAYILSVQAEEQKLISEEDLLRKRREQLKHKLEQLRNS

Row | SMILES | inhibition at 100 µM [%]
1 | O=[N+]([O-])c1ccc(Nc2ccccc2Br)c2nonc12 [Compound 3f, N-(2-Bromophenyl)-7-nitrobenzo[c][1,2,5]oxadiazol-4-amine] | ~40
2 | O=[N+]([O-])c1ccc(Oc2ccccc2-c2ccccc2)c2nonc12 [Compound 3j, 4-([1,1′-Biphenyl]-2-yloxy)-7-nitrobenzo[c][1,2,5]oxadiazole] | 36
3 | O=[N+]([O-])c1ccc(NCc2ccccc2)c2nonc12 [Compound 3c, N-Benzyl-7-nitrobenzo[c][1,2,5]oxadiazol-4-amine] | 0
4 | O=[N+]([O-])c1ccc(NC2CCCCC2)c2nonc12 [Compound 3b, N-Cyclohexyl-7-nitrobenzo[c][1,2,5]oxadiazol-4-amine] | 11
5 | O=C(O)c1cccc(Nc2ccc([N+](=O)[O-])c3nonc23)c1 [Compound 3m, 3-((7-Nitrobenzo[c][1,2,5]oxadiazol-4-yl)amino)benzoic acid] | 0
6 | COc1ccccc1Nc1ccc([N+](=O)[O-])c2nonc12 [Compound 3h, N-(2-Methoxyphenyl)-7-nitrobenzo[c][1,2,5]oxadiazol-4-amine] | 0
7 | O=[N+]([O-])c1ccc(N2CCCCC2)c2nonc12 [Compound 3d, 4-Nitro-7-(piperidin-1-yl)benzo[c][1,2,5]oxadiazole] | 10
8 | O=[N+]([O-])c1ccc(Nc2ccccc2O)c2nonc12 [Compound 3g, 2-((7-Nitrobenzo[c][1,2,5]oxadiazol-4-yl)amino)phenol] | 13
9 | Cc1ccccc1Nc1ccc([N+](=O)[O-])c2nonc12 [Compound 3e, 7-Nitro-N-(o-tolyl)benzo[c][1,2,5]oxadiazol-4-amine] | 11

Same assay, conditions: Table 2; 100 μM compound; Myc-Max/DNA band intensity relative to control; read-out: Inhibition at 100 μM (%)

Row | SMILES | inhibition at 100 µM [%]
10 | O=C(O)COCC(=O)Nc1ccc(Nc2ccccc2-c2ccccc2)c2nonc12 [Compound 5e, 2-(2-((7-([1,1′-Biphenyl]-2-ylamino)benzo[c][1,2,5]oxadiazol-4-yl)amino)-2-oxoethoxy)acetic acid] | 33
11 | O=C(Nc1ccc(Nc2ccccc2-c2ccccc2)c2nonc12)C(F)(F)F [Compound 5b, N-(7-([1,1′-Biphenyl]-2-ylamino)benzo[c][1,2,5]oxadiazol-4-yl)-2,2,2-trifluoroacetamide] | 25
12 | O=[N+]([O-])c1ccc(Nc2ccccc2-c2ccccc2)cc1 [Compound 7, N-(4-Nitrophenyl)-[1,1′-biphenyl]-2-amine] | 0
13 | CC(=O)Nc1ccc(Nc2ccccc2-c2ccccc2)c2nonc12 [Compound 5a, N-(7-([1,1′-Biphenyl]-2-ylamino)benzo[c][1,2,5]oxadiazol-4-yl)acetamide] | 2

Same assay, conditions: Table 10; 100 μM small-molecule, EMSA; read-out: % Inhibition of c-Myc-Max Dimerization

Row | SMILES | inhibition at 100 µM [%]
14 | Cc1ccccc1-c1cc(Nc2ccc([N+](=O)[O-])c3nonc23)ccc1C(=O)O [Compound 3jc62-1] | 0
15 | O=C(O)c1ccc(Nc2ccc([N+](=O)[O-])c3nonc23)c(-c2ccc(-c3ccccc3)cc2)c1 [Compound 3jc53-3] | 41
16 | COc1ccc(-c2cc(C(=O)O)ccc2Nc2ccc([N+](=O)[O-])c3nonc23)cc1 [Compound 3jc53-14] | 4
17 | O=C(O)c1ccc(Nc2ccc([N+](=O)[O-])c3nonc23)cc1-c1ccccc1 [Compound 3jc62-7] | 0
18 | CC(C)c1ccc(-c2cc(C(=O)O)ccc2Nc2ccc([N+](=O)[O-])c3nonc23)cc1 [Compound 3jc53-11] | 0
19 | N#Cc1ccccc1-c1cc(C(=O)O)ccc1Nc1ccc([N+](=O)[O-])c2nonc12 [Compound 3jc53-7] | 44
20 | CC(C)(C)c1ccc(-c2cc(C(=O)O)ccc2Nc2ccc([N+](=O)[O-])c3nonc23)cc1 [Compound 3jc53-12] | 2
21 | O=C(O)c1ccc(Nc2ccc([N+](=O)[O-])c3nonc23)c(-c2ccccc2-c2ccccc2)c1 [Compound 3jc53-1] | 18
22 | N#Cc1ccccc1-c1cc(Nc2ccc([N+](=O)[O-])c3nonc23)ccc1C(=O)O [Compound 3jc62-4] | 0
23 | O=C(O)c1ccc(Nc2ccc([N+](=O)[O-])c3nonc23)c(-c2cccc(-c3ccccc3)c2)c1 [Compound 3jc53-2] | 0
24 | N#Cc1ccc(-c2cc(C(=O)O)ccc2Nc2ccc([N+](=O)[O-])c3nonc23)cc1 [Compound 3jc53-9] | 13
25 | N#Cc1cccc(-c2cc(Nc3ccc([N+](=O)[O-])c4nonc34)ccc2C(=O)O)c1 [Compound 3jc62-5] | 8
26 | Cc1ccccc1-c1cc(C(=O)O)ccc1Nc1ccc([N+](=O)[O-])c2nonc12 [Compound 3jc53-4] | 7
27 | CCc1ccc(-c2cc(C(=O)O)ccc2Nc2ccc([N+](=O)[O-])c3nonc23)cc1 [Compound 3jc53-10] | 34
28 | O=C(O)c1ccc(Nc2ccc([N+](=O)[O-])c3nonc23)c(-c2ccccc2)c1 [Compound 3jc42] | 10
29 | N#Cc1cccc(-c2cc(C(=O)O)ccc2Nc2ccc([N+](=O)[O-])c3nonc23)c1 [Compound 3jc53-8] | 23
30 | Cc1ccc(-c2cc(Nc3ccc([N+](=O)[O-])c4nonc34)ccc2C(=O)O)cc1 [Compound 3jc62-3] | 0
31 | Cc1cccc(-c2cc(C(=O)O)ccc2Nc2ccc([N+](=O)[O-])c3nonc23)c1 [Compound 3j53-5] | 16
32 | O=C(O)c1ccc(Nc2ccc([N+](=O)[O-])c3nonc23)c(-c2ccc(C(F)(F)F)cc2)c1 [Compound 4jc23-6] | 0
33 | Cc1cccc(-c2cc(Nc3ccc([N+](=O)[O-])c4nonc34)ccc2C(=O)O)c1 [Compound 3jc62-2] | 0
34 | O=C(O)c1ccc(-c2cc(C(=O)O)ccc2Nc2ccc([N+](=O)[O-])c3nonc23)cc1 [Compound 3jc53-15] | 6

Same assay, conditions: Table 11; 100 uM, EMSA; read-out: % Inhibition of c-Myc-Max Dimerization

Row | SMILES | inhibition at 100 µM [%]
35 | O=C(O)c1ccc(Nc2ccccc2-c2ccccc2)cc1 [SF-3-093B] | 4
36 | N#Cc1cc([N+](=O)[O-])ccc1Nc1ccccc1-c1ccccc1 [SF-3-079] | 0
37 | N#Cc1cc(Nc2ccccc2-c2ccccc2)ccc1[N+](=O)[O-] [SF-3-080] | 0
38 | COC(=O)c1cc([N+](=O)[O-])ccc1Nc1ccccc1-c1ccccc1 [SF-3-106] | 0
39 | COC(=O)c1ccc(Nc2ccccc2-c2ccccc2)cc1 [SF-3-105] | 0
40 | O=[N+]([O-])c1ccc(Nc2ccccc2-c2ccccc2)cc1O [SF-3-101] | 0
41 | O=[N+]([O-])c1ccc(Nc2ccccc2-c2ccccc2)cc1 [SF-3-068] | 0
42 | O=C(O)c1cc(Nc2ccccc2-c2ccccc2)ccc1[N+](=O)[O-] [SF-3-070] | 5
43 | NC(=O)c1cc([N+](=O)[O-])ccc1Nc1ccccc1-c1ccccc1 [SF-3-103A] | 0
44 | NC(=O)c1cc(Nc2ccccc2-c2ccccc2)ccc1[N+](=O)[O-] [SF-3-104A] | 0
45 | Nc1ccc(Nc2ccccc2-c2ccccc2)cc1 [SF-3-098] | 0
46 | NC(=O)c1ccc(Nc2ccccc2-c2ccccc2)cc1 [SF-3-093A] | 0
47 | N#Cc1ccc(Nc2ccccc2-c2ccccc2)cc1 [SF-3-078] | 2
48 | COC(=O)c1cc(Nc2ccccc2-c2ccccc2)ccc1[N+](=O)[O-] [SF-3-107] | 0
49 | O=[N+]([O-])c1ccc(Nc2ccccc2-c2ccccc2)nc1 [SF-3-081] | 0

Same assay, conditions: read-out: Inhibition at 100 μM (%), Table 1; 100 μM compound; Myc-Max/DNA band intensity relative to control

Row | SMILES | inhibition at 100 µM [%]
50 | O=[N+]([O-])c1ccc(Nc2ccccc2)c2nonc12 [Compound 3a, 7-Nitro-N-phenylbenzo[c][1,2,5]oxadiazol-4-amine] | 2
51 | O=[N+]([O-])c1ccc(Nc2ccc(-c3ccccc3)cc2)c2nonc12 [Compound 3n] | 28
52 | Cc1ccc(Nc2ccc([N+](=O)[O-])c3nonc23)cc1 [Compound 3o, 7-Nitro-N-(p-tolyl)benzo[c][1,2,5]oxadiazol-4-amine] | 0
